Laboratory results taken from patent US20090143416A1, “Method of Inducing Tolerance of Plants Against Bacterioses” (priority 2006, published 2009).

Key:
[1] = system: Erwinia carotovora; experiment: Preventive action on potatoes against Erwinia carotovora (field trial); type: in vivo; settings: under the trial conditions (potato field trial); assumed, not tested alone
Text: (§1) The visually determined percentages of infected leaf areas were converted into efficacies in % of the untreated control:
(§2) An efficacy of 0 means that the infection level of the treated plants corresponds to that of the untreated control plants; an efficacy of 100 means that the treated plants were not infected.

[2] = system: Xathomonas ssp; experiment: Preventive action on tomatoes against Xathomonas ssp (field trial); type: in vivo; settings: under the trial conditions (tomato field trial); assumed, not tested alone
Procedure: The active compounds used were applied as commercially available formulations.
as §1
The efficacy (E) is calculated as follows using Abbot's formula: […]
α corresponds to the fungal infection of the treated plants in % and β corresponds to the fungal infection of the untreated (control) plants in %
as §2
The trial was conducted under field conditions. Tomato plants of variety Carmen at a height of app. 10 cm were planted and grown under standard conditions with adequate supply of water and nutrients. After 18 days a first application of active compounds was made, which was repeated five times every 5 to 8 days. No other compounds were applied for pathogen control. Infection with pathogens occurred. Each treatment consisted of four replicants in a randomized block design. The disease incidences were evaluated 46 days after the first application (Xathomonas ssp.).

[Cl-].[Cu+2].[Cu+2].[OH-].[OH-].[OH-] [copper, copper oxychloride]
efficacy against Erwinia carotovora [1]: very close to zero | efficacy against Xathomonas [2]: very close to zero
